The source of these data is patent EP0558321A1 (priority 1992, dated 1993).

Where a name gives a salt, the structure may show the parent alone. Read-outs that look alike come from different tables or passages of the source. Where only a bound is given, the exact number is not on record here.

For test [1], the system named is influenza virus (A/PR/8 strain). Nature of the test: microbe, parasite or virus in culture. The settings on record: unidentified influenza virus, PR/8, MDCK, read-out: Antiviral Activitiy (ΔTCID₅₀)(log₁₀). Format: cell-based.
For test [2], the system named is HSV-1 (Miyama strain). Nature of the test: microbe, parasite or virus in culture. Format: cell-based, herpes simplex virus type 1.
[3] abbreviates: Human alphaherpesvirus 1, GMK, read-out: Antiviral Activity (ΔTCID₅₀)(log₁₀), compound concentration 10 µg/ml, GMK cells.
Where [4] appears, read: Human alphaherpesvirus 1, GMK, read-out: Antiviral Activity (ΔTCID₅₀)(log₁₀).
Setting [5] is: compound concentration 10 µg/ml, GMK cells.
The mark [6] stands for this setting: compound concentration 50 µg/ml, GMK cells.
[7] abbreviates: Human alphaherpesvirus 1, GMK, read-out: Antiviral Activity (ΔTCID₅₀)(log₁₀), compound concentration 20 µg/ml, GMK cells.

Take `OC(c1cccc(C(F)(F)F)c1)(C1C2CC3CC(C2)CC1C3)C12CCCN1CCC2` (stereo not shown) [Prep. Ex. 21, 1-(1-azabicyclo[3.3.0]octan-5-yl)-1-(3-trifluoromethylphenyl)-1-(2-tricyclo[3.3.1.1^3.7]decyl)methan-1-ol hydrochloride]: the log reduction at 5 µg/mL in test [1] came out at 0; in test [2] (Human alphaherpesvirus 1, GMK, read-out: Antiviral Activity (ΔTCID₅₀)(log₁₀), compound concentration 5 µg/ml, GMK cells) it was 0.5. In addition, the log reduction at 10 µg/mL in test [1] is 0.27; in test [2] (setting [3]), 0.33.
As to `OC(c1ccccc1)(C1C2CC3CC(C2)CC1C3)C12CCCN1CCC2` (stereo not shown) [Prep. Ex. 8, 1-(1-azabicyclo[3.3.0]octan-5-yl)-1-phenyl-1-(2-tricyclo[3.3. 1.1^3.7]decyl)methan-1-ol], in test [1], the log reduction at 10 µg/mL is 0.67 and the log reduction at 20 µg/mL was more than 3.5. In test [2] (setting [4]), the log reduction at 5 µg/mL was 0.5, the log reduction at 10 µg/mL was determined as 0.66 and the log reduction at 20 µg/mL is 2.66.
Take `OC(c1ccccc1)(C1C2CC3C(C2)C31)C12CCCN1CCC2` (stereo not drawn) [Prep. Ex. 3, (1R*)-1-(1-azabicyclo[3.3.0]octan-5-yl)1-phenyl-1-[(3'S*)-3-tricyclo[2.2.1.0]heptyl]methan-1-ol hydrochloride]: the results for the “Antiviral Activity (ΔTCID₅₀)(log₁₀)” value in test [2] (setting [5]) and in test [2] (setting [6]) were 0.00 (-) log₁₀ and >3.00 (-) log₁₀, respectively.
Take `CC(C(O)(c1ccccc1)C1C2CC3C(C2)C31)C12CCCN1CCC2` (stereo not shown) [Prep. Ex. 6, 2-(1-azabicyclo[3.3.0]octan-5-yl)-1-phenyl-1-(3-tricyclo [2.2.1.0]heptyl)propan-1-ol]: the “Antiviral Activity (ΔTCID₅₀)(log₁₀)” value in test [2] (setting [5]) is 1.00 (±) log₁₀.
Take `OC(c1ccc(F)cc1)(C1C2CC3CC(C2)CC1C3)C12CCCN1CCC2` (stereo not shown) [Prep. Ex. 11, 1-(1-azabicyclo[3.3.0]octan-5-yl)-1-(4-fluoropheyl)-1-(2-tricyclo [3.3.1.1^3.7]decyl)methan-1-ol hydrochloride]: the “Antiviral Activity (ΔTCID₅₀)(log₁₀)” value in test [2] (compound concentration 5 µg/ml, GMK cells, hydrochloride) was 0.00 (-) log₁₀.
Turning to `COc1cccc(C(O)(C2C3CC4CC(C3)CC2C4)C23CCCN2CCC3)c1` (stereo not shown) [Prep. Ex. 19, 1-(1-azabicyclo[3.3.0]octan-5-yl)-1-(3-methoxyphenyl)-1-(2-tricyclo[3.3.1.1³^.7]decyl)methan-1-ol hydrochloride], in test [1], the log reduction at 5 µg/mL worked out at 0, the log reduction at 10 µg/mL was determined as 0.17 and the log reduction at 20 µg/mL is more than 3.17. Besides, the log reduction at 10 µg/mL in test [2] (setting [3]) amounted to 0. Moreover, in test [2] (setting [7]), the log reduction at 20 µg/mL was more than 2.
Regarding `OC(CCN1CCCCC1)(c1ccccc1)C1C2CC3C(C2)C31` (stereo not drawn) [Prep. Ex. 1, (1R*)-1-phenyl-3-piperidino-1-((3'S*)-3-tricyclo[2.2.1.0]heptyl)propan-1-ol hydrochloride], in test [1], the log reduction at 10 µg/mL amounted to 0.44 and the log reduction at 20 µg/mL was more than 3.17. Moreover, the log reduction at 10 µg/mL in test [2] (setting [3]) amounted to 0.83. Besides, the log reduction at 50 µg/mL in test [2] (Human alphaherpesvirus 1, GMK, read-out: Antiviral Activity (ΔTCID₅₀)(log₁₀), compound concentration 50 µg/ml, GMK cells) was more than 3.
As for `Cc1ccc(C(O)(C2C3CC4CC(C3)CC2C4)C23CCCN2CCC3)cc1` (stereo not shown) [Prep. Ex. 27, 1-(1-azabicyclo[3.3.0]octan-5-yl)-1-(4-methylphenyl)-1-(2-tricyclo-[3.3.1.1^3.7]decyl)methan-1-ol hydrochloride], the log reduction at 5 µg/mL in test [1] stood at 0.17. The log reduction at 10 µg/mL stood at 0.17 in test [1] and 2.17 in test [2] (setting [3]). Besides, the values for the log reduction at 20 µg/mL in test [1] and in test [2] (setting [7]) were 2.17 and more than 3, respectively.
With “(1R*)-1-(1-azabicyclo[3.3.0]octan-5-yl)-1-phenyl-1-((3'R*)-3-tricyclo[2.2.1.0]heptyl)methanol hydrochloride [Prep. Ex. 4]”, the “Antiviral Activity (ΔTCID₅₀)(log₁₀)” value in test [2] (setting [5]) is listed as 0.66 (-) log₁₀; in test [2] (setting [6]), 1.33 (±) log₁₀.
Consider “(1R*)-1-phenyl-3-piperidino-1-((3'R*)-3-tricyclo[2.2.1.0] heptyl)propan-1-ol hydrochloride [Prep. Ex. 2]”, for which the “Antiviral Activity (ΔTCID₅₀)(log₁₀)” value in test [2] (setting [5]) is listed as 0.17 (-) log₁₀; in test [2] (setting [6]), >3.00 (+) log₁₀.
